Data from patent publication US20260055106A1, “PARG INHIBITORY COMPOUND” (FORX THERAPEUTICS AG, priority 2021, published 2026).
Structures can show the parent of a compound that is named as a salt. Where two headings read alike, the source gives them in different places.

Columns and labels:
U2OS = assay: Cellular viability assay (U2OS); type: cell-based; conditions: Homo sapiens, 96 hours incubation, Cell Titer-Glo, read-out: EC50 determined in U2OS cells, Cellular viability assay
Experimental: (§1) NCI-H460 and MDA-MB-436 as PARG-inhibition sensitive cell lines, and U2OS as PARG-inhibition insensitive cell line, were plated at 1000 cells/well, 5000 cells/well and 2000 cells/well, respectively, in 96-well white plates with clear flat bottom. After 24 hours, the compounds were added with the Tecan digital dispenser (D300e), in duplicates. The outer wells of the plate were excluded. After 96 hours of incubation, 150 μl of the growth medium were removed and 50 μl of Cell Titer-Glo (Promega) were added per well. Following an incubation of 10 minutes, luminescence was read using a plate reader (Tecan) for NCI-H460 and U2OS cell lines, and a 2104 EnVision plate reader for MDA-MB-436. Averaged values of the samples were normalized to DMSO treated control samples. Curves were fit as % of the control vs. log of the compound concentration using a 4 parameter log-logistic function: […]

NCI-H460 = assay: Cellular viability assay (NCI-H460); type: cell-based; conditions: 96 hours incubation, Cell Titer-Glo, read-out: EC50 determined in NCIH-460 cells, Cellular viability assay
Experimental: as §1

MDA-MB-436 tumor cells = assay: Cell-derived xenograft (CDX) study, MDA-MB-436 xenograft model; type: in vivo, Mus musculus; conditions: BALB/c nude mice
Experimental: • Species: Mus musculus • Strain: BALB/c nude • Age: 6-9 weeks • Sex: Female • Body weight: 17-20 g • Animal supplier: Beijing Vital River Laboratory Animal Technology Co., Ltd • Certificate No: 20230209Abzz0619000498
The MDA-MB-436 tumor cells (ATCC, cat #HTB-130) were maintained in vitro as a monolayer culture in L-15 medium supplemented with 10% fetal bovine serum, 10 μg/mL Insulin, 16 μg/mL glutathione and 1% Antibiotic-Antimycotic at 37° C. in an atmosphere of 0% CO2 in air. The cells growing in an exponential growth phase were harvested and counted for tumor inoculation.
BALB/c nude female mice were inoculated subcutaneously at the right flank with MDA-MB-436 tumor cells (10×10^6/mouse) in 0.2 mL of PBS with Matrigel (1:1) for tumor development. The animals were randomized and the treatment was started on day 25 after tumor inoculation when the average tumor volume reached approximately 126 mm^3. Each group consisted of 10 tumor-bearing mice. The compound of formula (I) was administrated to the mice according to the predetermined regimen as shown in the experimental design table 3
Tumor sizes were measured twice weekly in two dimensions using a caliper, and the volumes were expressed in mm^3. The tumor sizes were then used for the calculations of TGI values.
TGI was calculated for each group using the formula: TGI (%)=[1−(Ti−T0)/(Vi−V0)]×100; Ti is the average tumor volume of a treatment group on a given day, T0 is the average tumor volume of the treatment group on the first day of treatment, Vi is the average tumor volume of the vehicle control group on the same day with Ti, and V0 is the average tumor volume of the vehicle group on the first day of treatment.
A one-way ANOVA was performed to compare the tumor volume among groups.

Kinetic solubility assay = type: physicochemical; conditions: buffer, aqueous buffer, kinetic from dmso stock, pH 7.4, shake flask, room temperature, HPLC-UV
Experimental: The Kinetic solubility assay employs the shake flask method followed by HPLC-UV analysis. For exemplary compounds, the kinetic solubility was measured according to the following protocol: • 1. Samples were weighed and dissolved in 100% DMSO to make a stock solution of 10 mM. About 100 μL of stock solution is needed to cover this assay. • 2. Test compounds and controls (10 mM in DMSO, 10 μL/tube) were added into the buffer (490 μL/well) which were placed in a Mini-UniPrep filter. The buffer was prepared as the customer's requirement. • 3. The kinetic solubility samples were vortexed for 2 minutes. • 4. The solubility solutions were shaked in an orbital shaker for 24 hr at room temperature. • 5. 200 μL of each solubility solution were transferd into a 96-deep well for analysis when the samples were directly filtered by the syringeless filter device. • 6. The test compound concentration of the filtrate were determined using HPLC-UV. • 7. Three UV standard solutions were injected into HPLC from low to high concentrations, followed by testing of the K.S. supernatant. Testing samples were injected in duplicate.

human PARG = biological target: T1, human PARG (Homo sapiens, UniProt Q86W56, A967T/C963S/D927K/H446G/I916T/L447S/L473S/M841I/N479S/R811K/S802A/S858P/T924D); assay: PARG enzymatic IC50 assay; type: biochemical; conditions: 2 hours incubation with enzyme; substrate ADP-ribose-pNP; absorbance 405 nm; read-out: IC50 determined in PARG enzymatic assay (PARG protein and 2 hours incubation)
T1 construct: human PARG (448-976 [H446G, L447S, L473S, N479S, S802A, R811K, M8411, S858P, 1916T, T924D, D927K, C963S, A967T]); 6His-TwinStrep (protease-cleavable) (N, cleaved yes); host or cells: E. coli BL21 (DE3)
T1 sequence (Q86W56 446-976 H446G/L447S/L473S/N479S/S802A/R811K/M841I/S858P/I916T/T924D/D927K/C963S/A967T): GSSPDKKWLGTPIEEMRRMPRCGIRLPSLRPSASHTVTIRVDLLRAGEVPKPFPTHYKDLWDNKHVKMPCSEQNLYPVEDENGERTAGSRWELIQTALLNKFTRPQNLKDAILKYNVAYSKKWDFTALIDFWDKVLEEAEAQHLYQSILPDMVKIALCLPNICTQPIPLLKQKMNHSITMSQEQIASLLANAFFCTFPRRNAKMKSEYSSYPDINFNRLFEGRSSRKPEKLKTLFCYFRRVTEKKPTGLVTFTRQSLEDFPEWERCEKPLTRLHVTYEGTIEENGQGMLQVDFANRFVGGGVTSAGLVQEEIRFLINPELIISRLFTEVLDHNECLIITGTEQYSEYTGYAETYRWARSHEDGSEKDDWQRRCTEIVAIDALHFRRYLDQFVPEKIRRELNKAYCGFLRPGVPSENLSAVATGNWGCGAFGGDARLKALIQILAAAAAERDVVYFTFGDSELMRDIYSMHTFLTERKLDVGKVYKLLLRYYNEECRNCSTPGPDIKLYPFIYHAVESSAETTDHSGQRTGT
Experimental: A codon optimized gene encoding human PARG (448-976 [H446G, L447S, L473S, N479S, S802A, R811K, M8411, S858P, 1916T, T924D, D927K, C963S, A967T]) was synthesized by Genscript, and cloned into pET15b (NcoI/BamHI) with an N-terminal, Thrombin protease cleavable 6His-TwinStrep tag. Expression of the protein in E. coli BL21 (DE3) was induced by addition of 0.2 mM IPTG to a shake flask culture grown to OD600=0.8 at 37° C. Growth was allowed to continue at 30° C. for a further 20 hours before harvesting by centrifugation and storage of the cell pellet at −80° C. […]
PARG enzyme as incubated with compound or vehicle (DMSO) for 15 minutes or 2 hours in a 384 well plate. After adding the PARG substrate ADP-ribose-pNP, the plate was read for absorbance intensity at 405 nm. The vehicle (DMSO) with high absorbance intensity represents no inhibition of enzymatic reaction while the low control (no enzyme) with low absorbance intensity represents full inhibition of enzymatic reaction. […]
The protocol that was used for enzyme reaction and detection is as follows: • 1. […] Read the plate on a plate reader (e.g., Spark Tecan).

PARG = biological target: T2, PARG (Homo sapiens, UniProt Q86W56); assay: Cellular PAR chain assay; type: cell-based; conditions: U2OS cells
T2 construct: endogenous in cells; host or cells: U2OS
T2 sequence (Q86W56 whole entry): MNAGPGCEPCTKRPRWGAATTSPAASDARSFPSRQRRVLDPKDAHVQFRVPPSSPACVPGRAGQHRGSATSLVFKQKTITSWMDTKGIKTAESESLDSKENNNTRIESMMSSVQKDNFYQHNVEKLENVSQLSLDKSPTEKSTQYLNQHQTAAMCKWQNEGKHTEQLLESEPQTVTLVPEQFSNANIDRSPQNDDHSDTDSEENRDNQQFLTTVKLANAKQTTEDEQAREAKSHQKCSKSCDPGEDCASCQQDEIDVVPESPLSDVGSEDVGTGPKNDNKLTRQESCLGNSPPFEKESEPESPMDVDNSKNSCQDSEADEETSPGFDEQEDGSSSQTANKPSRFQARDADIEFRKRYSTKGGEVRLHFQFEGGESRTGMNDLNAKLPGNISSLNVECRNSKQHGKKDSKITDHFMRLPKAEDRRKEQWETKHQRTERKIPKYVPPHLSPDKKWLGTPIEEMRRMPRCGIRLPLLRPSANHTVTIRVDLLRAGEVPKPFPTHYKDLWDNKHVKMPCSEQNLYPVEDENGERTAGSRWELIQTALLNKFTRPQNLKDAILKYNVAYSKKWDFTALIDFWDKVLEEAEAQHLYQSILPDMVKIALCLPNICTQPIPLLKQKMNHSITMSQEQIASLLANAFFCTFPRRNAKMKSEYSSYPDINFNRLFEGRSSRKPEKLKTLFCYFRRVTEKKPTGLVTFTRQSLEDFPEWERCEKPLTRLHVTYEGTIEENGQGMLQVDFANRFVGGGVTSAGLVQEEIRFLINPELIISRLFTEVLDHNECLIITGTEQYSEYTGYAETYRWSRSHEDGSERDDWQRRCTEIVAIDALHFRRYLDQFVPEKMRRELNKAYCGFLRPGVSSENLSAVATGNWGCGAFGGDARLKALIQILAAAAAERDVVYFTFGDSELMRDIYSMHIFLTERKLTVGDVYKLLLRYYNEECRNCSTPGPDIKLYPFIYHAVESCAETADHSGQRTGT
Experimental: The ability of compounds to inhibit PARG in response to DNA damage, was assessed with U2OS cells pretreated with the compounds for 1 hour, following a 1-hour treatment with or without the DNA alkylating agent temozolomide (TMZ). […] The cells were incubated for 2 hours at room temperature with a mouse monoclonal antibody against poly (ADP) ribose (PAR) polymer. The cells were washed and incubated with an anti-mouse Alexa-488 conjugated secondary antibody for 1 hour at room temperature. Propidium iodide staining was used to determine DNA content in the cells (staining at 4° C. overnight). The fluorescence intensity of the cells was assessed by flow cytometry (Cytoflex from Beckmann) and the percentage of PAR chain positive cells (gated in relation to TMZ+DMSO treated control) was determined. PAR chain positive cells % were fit against the concentration of the compound using a 4 parameter log-logistic function, generating PAR chain EC50 values: […]

MDA-MB-436 = assay: Cellular viability assay (MDA-MB-436); type: cell-based; conditions: Homo sapiens, 96 hours incubation, Cell Titer-Glo, read-out: EC50 determined in MDA-MB-436 cells, Cellular viability assay
Experimental: as §1

Row | SMILES | EC50 (U2OS) | EC50 (NCI-H460; listed as 1b fraction B) | EC50 (NCI-H460; Homo sapiens, NCI-H460, 96 h) | Tumor volume on day 28 (MDA-MB-436 tumor cells; 100 mg/kg PO QD x 28 days, Mean ± SEM) | TGI (MDA-MB-436 tumor cells; 100 mg/kg PO QD x 28 days, day 28) | anti-tumor response (MDA-MB-436 tumor cells; 100 mg/kg, MDA-MB-436 xenograft) | solubility kinetic at 24 h (Kinetic solubility assay) | IC50 (human PARG) | EC50 (PARG; with treatment of TMZ, read-out: EC50 determined in Cellular PAR chain assay (conditions with treatment of TMZ)) | EC50 (PARG; without treatment of TMZ, read-out: EC50 determined in Cellular PAR chain assay (conditions without treatment of TMZ)) | EC50 (MDA-MB-436)
1 | C[C@H]1CN(c2cc(S(=O)(=O)NC3(C)CC3)cn3c(-c4nnc(C(F)F)s4)ncc23)C[C@H](C)N1 (single isomer, unassigned) [Example 1b] | > 2000 nM | 22 nM | 21 nM | – | – | – | – | – | – | – | –
2 | C[C@H]1CN(c2cc(S(=O)(=O)NC3(C)CC3)cn3c(-c4nnc(C(F)F)s4)ncc23)C[C@H](C)N1 [Example 1, 3-(5-(difluoromethyl)-1,3,4-thiadiazol-2-yl)-8-((3S,5S)-3,5-dimethylpiperazin-1-yl)-N-(1-methylcyclopropyl)imidazo[1,5-a]pyridine-6-sulfonamide formate] | 11900 nM | – | < 19 nM | 27 ± 9 mm^3 | 118.20% | tumor regression seen in all mice | 152 µM | 11 nM | < 3 nM | < 3 nM | 17 nM
